Reference: ChEMBL document CHEMBL4028908, “The Discovery of 3-((4-Chloro-3-methoxyphenyl)amino)-1-((3R,4S)-4-cyanotetrahydro-2H-pyran-3-yl)-1H-pyrazole-4-carboxamide, a Highly Ligand Efficient and Efficacious Janus Kinase 1 Selective Inhibitor with Favorable Pharmacokinetic Properties” (J Med Chem, 2017)
Converted amounts (≈) assume the structure as drawn.

Legend:
[1] = Apparent permeability of the compound by cell-based assay; assay type: physicochemical; details: not told
[2] = Oral bioavailability in rat at 1 mg/kg; assay type: ADME, organism-based; details: in vivo
[3] = Lipophilicity, log D of the compound at 100 uM at pH 7 by HPLC/DAD analysis; assay type: physicochemical; details: buffer
[4] = Plasma clearance in cynomolgus monkey at 0.25 mg/kg, iv or 0.5 mg/kg, po; assay type: ADME, organism-based, Macaca fascicularis
[5] = target: Non-receptor tyrosine-protein kinase TYK2 (Homo sapiens, UniProt P29597)
Non-receptor tyrosine-protein kinase TYK2, sequence (P29597 whole entry): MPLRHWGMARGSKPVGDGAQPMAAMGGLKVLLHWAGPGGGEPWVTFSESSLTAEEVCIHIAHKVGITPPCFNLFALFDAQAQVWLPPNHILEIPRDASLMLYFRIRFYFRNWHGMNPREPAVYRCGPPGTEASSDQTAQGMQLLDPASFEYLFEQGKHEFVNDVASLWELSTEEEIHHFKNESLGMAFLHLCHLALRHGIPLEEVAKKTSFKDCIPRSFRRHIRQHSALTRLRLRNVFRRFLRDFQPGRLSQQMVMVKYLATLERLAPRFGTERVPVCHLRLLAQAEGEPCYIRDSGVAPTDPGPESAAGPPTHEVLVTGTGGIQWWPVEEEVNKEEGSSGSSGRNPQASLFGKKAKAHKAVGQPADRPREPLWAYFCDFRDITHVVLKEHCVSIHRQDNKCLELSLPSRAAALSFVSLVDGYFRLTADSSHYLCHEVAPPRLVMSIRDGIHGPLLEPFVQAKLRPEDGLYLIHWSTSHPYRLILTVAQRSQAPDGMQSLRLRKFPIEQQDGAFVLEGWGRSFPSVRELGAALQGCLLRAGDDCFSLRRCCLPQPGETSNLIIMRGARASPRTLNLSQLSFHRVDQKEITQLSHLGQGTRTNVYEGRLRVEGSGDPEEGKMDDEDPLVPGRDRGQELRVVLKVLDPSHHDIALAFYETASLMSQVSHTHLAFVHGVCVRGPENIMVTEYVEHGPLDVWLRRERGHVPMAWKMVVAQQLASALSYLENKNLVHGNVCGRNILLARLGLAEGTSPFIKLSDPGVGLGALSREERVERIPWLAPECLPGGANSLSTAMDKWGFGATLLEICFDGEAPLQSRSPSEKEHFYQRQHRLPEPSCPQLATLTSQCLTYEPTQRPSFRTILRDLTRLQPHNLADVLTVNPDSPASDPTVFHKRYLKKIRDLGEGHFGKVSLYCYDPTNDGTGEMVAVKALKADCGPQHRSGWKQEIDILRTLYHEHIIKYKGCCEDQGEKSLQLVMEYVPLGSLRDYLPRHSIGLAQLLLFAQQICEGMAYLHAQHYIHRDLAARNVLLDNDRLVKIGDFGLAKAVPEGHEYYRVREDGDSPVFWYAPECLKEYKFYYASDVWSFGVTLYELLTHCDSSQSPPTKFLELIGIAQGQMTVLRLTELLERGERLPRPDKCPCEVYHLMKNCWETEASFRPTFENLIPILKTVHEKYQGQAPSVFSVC

[6] = test system: Rattus norvegicus; test: Antiinflammatory activity in po dosed Lewis rat type 2 bovine collagen-induced arthritis model assessed as inhibition of paw swelling administered as bid on day 17; assay type: functional, organism-based
[7] = Half life in cynomolgus monkey at 0.25 mg/kg, iv or 0.5 mg/kg, po; assay type: ADME, organism-based, Macaca fascicularis; details: in vivo
[8] = Plasma clearance in dog at 0.25 mg/kg, iv or 0.5 mg/kg, po; assay type: ADME, organism-based, Canis lupus familiaris
[9] = Oral bioavailability in cynomolgus monkey at 0.5 mg/kg; assay type: ADME, organism-based, Macaca fascicularis; details: in vivo
[10] = target: T1, Tyrosine-protein kinase JAK3 (Homo sapiens, UniProt P52333)
T1 sequence (P52333 whole entry): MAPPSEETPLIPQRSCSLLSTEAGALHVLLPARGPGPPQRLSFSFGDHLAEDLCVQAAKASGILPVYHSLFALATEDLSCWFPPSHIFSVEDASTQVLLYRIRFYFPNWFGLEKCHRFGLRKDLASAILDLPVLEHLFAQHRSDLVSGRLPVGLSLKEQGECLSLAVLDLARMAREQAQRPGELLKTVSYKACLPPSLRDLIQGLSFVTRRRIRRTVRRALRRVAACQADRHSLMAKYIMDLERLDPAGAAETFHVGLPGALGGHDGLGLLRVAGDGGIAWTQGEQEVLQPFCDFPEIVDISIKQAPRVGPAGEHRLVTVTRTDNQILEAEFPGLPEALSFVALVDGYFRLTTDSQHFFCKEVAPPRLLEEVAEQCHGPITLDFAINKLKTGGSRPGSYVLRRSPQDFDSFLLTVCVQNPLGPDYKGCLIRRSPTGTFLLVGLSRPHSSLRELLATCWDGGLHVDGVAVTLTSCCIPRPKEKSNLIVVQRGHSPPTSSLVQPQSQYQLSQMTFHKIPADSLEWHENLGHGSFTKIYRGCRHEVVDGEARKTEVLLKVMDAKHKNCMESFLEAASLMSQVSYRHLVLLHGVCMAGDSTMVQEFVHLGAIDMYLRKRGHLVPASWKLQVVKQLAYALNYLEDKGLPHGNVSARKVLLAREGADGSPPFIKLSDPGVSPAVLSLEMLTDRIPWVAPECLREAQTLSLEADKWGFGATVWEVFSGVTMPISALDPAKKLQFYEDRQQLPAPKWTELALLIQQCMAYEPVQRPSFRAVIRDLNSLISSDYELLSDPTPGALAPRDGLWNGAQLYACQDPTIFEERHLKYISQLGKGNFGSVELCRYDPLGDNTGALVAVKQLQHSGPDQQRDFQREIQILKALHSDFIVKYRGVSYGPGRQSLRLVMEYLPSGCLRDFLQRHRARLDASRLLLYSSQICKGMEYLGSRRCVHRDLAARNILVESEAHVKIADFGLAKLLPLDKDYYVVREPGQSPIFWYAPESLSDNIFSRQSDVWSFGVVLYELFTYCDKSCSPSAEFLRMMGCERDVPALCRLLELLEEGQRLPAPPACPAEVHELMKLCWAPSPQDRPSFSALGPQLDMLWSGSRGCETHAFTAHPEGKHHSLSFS

[11] = Protein binding in cynomolgus monkey plasma; assay type: ADME, cell-free, Macaca fascicularis; details: read-out: PPB (converted)
[12] = test system: Rattus norvegicus; test: Unbound clearance in rat at 0.5 mg/kg, iv or 1 mg/kg, po; assay type: ADME, organism-based; details: in vivo
[13] = Volume of distribution at steady state in dog at 0.25 mg/kg, iv or 0.5 mg/kg, po; assay type: ADME, organism-based, Canis lupus familiaris; details: in vivo, read-out: Vdss
[14] = Volume of distribution at steady state in cynomolgus monkey at 0.25 mg/kg, iv or 0.5 mg/kg, po; assay type: ADME, organism-based, Macaca fascicularis; details: in vivo, read-out: Vdss
[15] = Intrinsic clearance in dog hepatocytes after 120 mins by LC-MS/MS analysis; assay type: ADME, cell-based, Canis lupus familiaris, Hepatocyte; details: read-out: CLH
[16] = Half life in dog at 0.25 mg/kg, iv or 0.5 mg/kg, po; assay type: ADME, organism-based, Canis lupus familiaris; details: in vivo
[17] = Intrinsic clearance in cynomolgus monkey hepatocytes after 120 mins by LC-MS/MS analysis; assay type: ADME, cell-based, Macaca fascicularis, Hepatocyte; details: read-out: CLH
[18] = Protein binding in rat plasma; assay type: ADME, cell-free; details: read-out: PPB (converted)
[19] = test system: Cynomolgus monkey; test: Unbound clearance in cynomolgus monkey at 0.25 mg/kg, iv or 0.5 mg/kg, po; assay type: ADME, organism-based, Macaca fascicularis; details: in vivo
[20] = target: T2, Tyrosine-protein kinase JAK1 (Homo sapiens, UniProt P23458)
T2 sequence (P23458 whole entry): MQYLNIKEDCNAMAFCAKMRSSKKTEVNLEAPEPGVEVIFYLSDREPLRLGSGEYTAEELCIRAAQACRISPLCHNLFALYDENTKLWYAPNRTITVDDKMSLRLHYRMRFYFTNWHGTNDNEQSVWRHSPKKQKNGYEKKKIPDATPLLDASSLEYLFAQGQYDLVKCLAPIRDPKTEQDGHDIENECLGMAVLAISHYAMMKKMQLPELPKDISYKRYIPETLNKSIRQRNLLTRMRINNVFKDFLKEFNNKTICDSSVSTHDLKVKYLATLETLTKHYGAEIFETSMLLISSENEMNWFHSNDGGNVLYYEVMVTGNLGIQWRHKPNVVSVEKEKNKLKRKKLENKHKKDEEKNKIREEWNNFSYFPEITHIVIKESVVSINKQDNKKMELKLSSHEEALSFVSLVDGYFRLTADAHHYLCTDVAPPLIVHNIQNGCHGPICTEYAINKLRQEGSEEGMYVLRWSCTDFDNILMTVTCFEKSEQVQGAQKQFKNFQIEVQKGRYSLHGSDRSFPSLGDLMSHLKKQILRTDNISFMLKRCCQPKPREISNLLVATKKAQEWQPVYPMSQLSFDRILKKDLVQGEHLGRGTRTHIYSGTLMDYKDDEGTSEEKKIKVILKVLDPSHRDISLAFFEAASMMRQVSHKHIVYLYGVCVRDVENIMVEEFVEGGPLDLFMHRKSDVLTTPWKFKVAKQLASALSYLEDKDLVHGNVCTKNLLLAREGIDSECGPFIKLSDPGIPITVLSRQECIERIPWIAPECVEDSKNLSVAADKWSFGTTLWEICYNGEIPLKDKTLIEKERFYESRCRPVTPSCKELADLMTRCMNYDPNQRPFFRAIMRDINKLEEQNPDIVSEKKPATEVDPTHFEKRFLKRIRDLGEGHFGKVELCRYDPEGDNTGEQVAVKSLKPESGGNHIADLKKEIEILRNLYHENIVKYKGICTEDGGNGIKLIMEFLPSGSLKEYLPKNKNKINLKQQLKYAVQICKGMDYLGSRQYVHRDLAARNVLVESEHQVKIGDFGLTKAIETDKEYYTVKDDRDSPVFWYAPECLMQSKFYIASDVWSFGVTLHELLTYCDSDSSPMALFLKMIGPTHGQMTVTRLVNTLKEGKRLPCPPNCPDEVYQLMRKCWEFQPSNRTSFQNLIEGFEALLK

[21] = Half life in rat at 0.5 mg/kg, iv or 1 mg/kg, po; assay type: ADME, organism-based; details: in vivo
[22] = organism: Homo sapiens; test: Selectivity ratio of IC50 for GST-tagged recombinant human JAK2 catalytic domain to IC50 for GST-tagged recombinant human JAK1 catalytic domain
[23] = target: T2, Tyrosine-protein kinase JAK1; remark: listed apart in the source
[24] = Oral bioavailability in dog at 0.5 mg/kg; assay type: ADME, organism-based, Canis lupus familiaris; details: in vivo
[25] = Intrinsic clearance in rat hepatocytes after 120 mins by LC-MS/MS analysis; assay type: ADME, cell-based, Hepatocyte; details: read-out: CLH
[26] = target: T2, Tyrosine-protein kinase JAK1; test: Inhibition of JAK1 in human whole blood assessed as decrease in cytokine-stimulated STAT phosphorylation preincubated for 20 mins followed by cytokine addition measured after 30 mins
[27] = Plasma clearance in rat at 0.5 mg/kg, iv or 1 mg/kg, po; assay type: ADME, organism-based
[28] = Intrinsic clearance in human hepatocytes after 120 mins by LC-MS/MS analysis; assay type: ADME, cell-based, Hepatocyte; details: read-out: CLH
[29] = Volume of distribution at steady state in rat at 0.5 mg/kg, iv or 1 mg/kg, po; assay type: ADME, organism-based; details: in vivo, read-out: Vdss
[30] = target: T3, Tyrosine-protein kinase JAK2 (Homo sapiens, UniProt O60674)
T3 sequence (O60674 whole entry): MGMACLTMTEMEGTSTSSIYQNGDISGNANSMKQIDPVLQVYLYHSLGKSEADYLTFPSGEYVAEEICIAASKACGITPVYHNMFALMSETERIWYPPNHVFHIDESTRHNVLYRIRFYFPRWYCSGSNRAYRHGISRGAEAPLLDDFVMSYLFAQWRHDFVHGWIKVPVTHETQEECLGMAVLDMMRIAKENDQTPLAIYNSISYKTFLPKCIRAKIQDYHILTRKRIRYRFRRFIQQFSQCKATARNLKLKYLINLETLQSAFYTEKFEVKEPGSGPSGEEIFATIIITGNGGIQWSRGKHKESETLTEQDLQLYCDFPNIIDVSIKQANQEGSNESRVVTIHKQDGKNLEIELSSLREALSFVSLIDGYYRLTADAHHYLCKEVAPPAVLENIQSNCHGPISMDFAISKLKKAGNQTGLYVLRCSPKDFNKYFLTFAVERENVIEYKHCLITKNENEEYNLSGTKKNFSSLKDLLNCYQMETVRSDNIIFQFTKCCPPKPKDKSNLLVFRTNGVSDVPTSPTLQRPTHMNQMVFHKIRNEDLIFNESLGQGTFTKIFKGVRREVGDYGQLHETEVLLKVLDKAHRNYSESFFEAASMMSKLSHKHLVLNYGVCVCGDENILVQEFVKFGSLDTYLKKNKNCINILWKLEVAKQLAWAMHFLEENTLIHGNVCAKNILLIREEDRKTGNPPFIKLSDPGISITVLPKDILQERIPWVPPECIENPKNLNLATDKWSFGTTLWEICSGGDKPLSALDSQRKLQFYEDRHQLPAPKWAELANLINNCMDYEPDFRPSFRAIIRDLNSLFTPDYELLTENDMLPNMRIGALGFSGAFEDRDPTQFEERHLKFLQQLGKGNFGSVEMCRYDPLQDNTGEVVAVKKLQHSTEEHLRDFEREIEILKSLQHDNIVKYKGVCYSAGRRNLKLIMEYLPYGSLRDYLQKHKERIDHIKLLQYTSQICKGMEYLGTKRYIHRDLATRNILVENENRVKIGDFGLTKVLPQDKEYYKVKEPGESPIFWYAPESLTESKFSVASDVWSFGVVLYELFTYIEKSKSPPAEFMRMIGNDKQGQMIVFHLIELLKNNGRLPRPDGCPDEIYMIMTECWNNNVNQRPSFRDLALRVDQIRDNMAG

[31] = Solubility of the compound in FaSSIF solution at 100 uM after overnight incubation by UPLC/DAD analysis; assay type: physicochemical
[32] = test system: Canis familiaris; test: Unbound clearance in dog at 0.25 mg/kg, iv or 0.5 mg/kg, po; assay type: ADME, organism-based, Canis lupus familiaris; details: in vivo
[33] = Protein binding in dog plasma; assay type: ADME, cell-free, Canis lupus familiaris; details: read-out: PPB (converted)
[34] = target: T4, Voltage-gated inwardly rectifying potassium channel KCNH2 (Homo sapiens, UniProt Q12809)
T4 sequence (Q12809 whole entry): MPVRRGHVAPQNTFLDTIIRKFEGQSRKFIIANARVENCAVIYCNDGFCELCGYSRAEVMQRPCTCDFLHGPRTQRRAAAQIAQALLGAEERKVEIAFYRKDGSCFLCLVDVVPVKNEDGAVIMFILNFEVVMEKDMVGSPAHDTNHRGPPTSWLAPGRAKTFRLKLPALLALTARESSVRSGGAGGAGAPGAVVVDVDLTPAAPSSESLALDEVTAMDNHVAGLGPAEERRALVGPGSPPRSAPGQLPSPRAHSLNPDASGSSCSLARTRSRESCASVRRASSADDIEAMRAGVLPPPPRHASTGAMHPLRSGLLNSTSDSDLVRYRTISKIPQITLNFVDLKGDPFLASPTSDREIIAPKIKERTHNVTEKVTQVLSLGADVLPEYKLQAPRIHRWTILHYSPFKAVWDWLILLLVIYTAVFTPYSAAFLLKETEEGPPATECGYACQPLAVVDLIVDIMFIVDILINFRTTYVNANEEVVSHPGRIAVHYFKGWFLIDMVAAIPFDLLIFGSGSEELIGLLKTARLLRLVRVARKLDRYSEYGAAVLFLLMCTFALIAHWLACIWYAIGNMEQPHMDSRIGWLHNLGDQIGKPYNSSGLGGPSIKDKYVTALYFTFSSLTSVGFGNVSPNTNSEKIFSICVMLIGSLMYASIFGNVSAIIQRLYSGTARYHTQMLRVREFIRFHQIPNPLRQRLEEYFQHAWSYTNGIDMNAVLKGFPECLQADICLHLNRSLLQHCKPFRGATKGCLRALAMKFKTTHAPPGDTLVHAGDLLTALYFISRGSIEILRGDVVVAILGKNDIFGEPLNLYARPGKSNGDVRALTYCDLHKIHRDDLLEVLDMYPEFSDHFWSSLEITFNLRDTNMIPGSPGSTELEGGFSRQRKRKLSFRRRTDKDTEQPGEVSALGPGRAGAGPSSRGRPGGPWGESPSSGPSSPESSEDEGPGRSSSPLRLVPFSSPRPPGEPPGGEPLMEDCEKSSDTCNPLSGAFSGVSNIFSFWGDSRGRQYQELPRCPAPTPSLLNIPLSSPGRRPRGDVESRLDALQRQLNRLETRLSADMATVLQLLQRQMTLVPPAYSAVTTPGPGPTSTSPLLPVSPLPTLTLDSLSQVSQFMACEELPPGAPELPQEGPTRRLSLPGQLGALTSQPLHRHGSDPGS

[35] = target: T3, Tyrosine-protein kinase JAK2; remark: listed apart in the source
[36] = target: T4, Voltage-gated inwardly rectifying potassium channel KCNH2; test: Inhibition of human ERG expressed in HEK293 cells by patch clamp method; assay type: cell-based

Row | SMILES | bioavailability [2] | logD at 100 µM [3] | clearance [4] | IC50 [5] | inhibition [6] | half-life [7] | clearance [8] | bioavailability [9] | IC50 [10] | fraction unbound [11] | CL free [12] | Vd [13] | Vd [14] | IC50 [20] | IC50 [23] | bioavailability [24] | CLint scaled [25] | clearance [27] | CLint scaled [28] | Vd [29] | further results
1 | N#C[C@H]1C[C@@H](N2CCC2)CC[C@@H]1n1cc(C(N)=O)c(Nc2ccc([C@H](O)C(F)(F)F)cc2)n1 | 0% | 1.54 | – | – | – | – | – | – | – | – | – | – | – | – | – | – | – | – | – | – | Papp [1]: 3.3 ×10⁻⁶ cm/s
2 | COc1cc(Nc2nn([C@H]3COCC[C@@H]3C#N)cc2C(N)=O)ccc1Cl | 47% | 2.34 | 19 mL/min/kg | 0.012 µM | Dose-dependent effect | 2.8 h | 14 mL/min/kg | 32% | 0.397 µM | 0.033 | 350 mL/min/kg | 1.2 L/kg | 2.8 L/kg | 0.013 µM | 0.0001 µM | 29% | 35 mL/min/kg | 21 mL/min/kg | 6 mL/min/kg | 2.7 L/kg | CLint scaled [15]: 122 mL/min/kg; half-life [16]: 1.1 h; CLint scaled [17]: 36 mL/min/kg; fraction unbound [18]: 0.06; CL free [19]: 581 mL/min/kg; half-life [21]: 1.6 h; Ratio IC50 [22]: 39; IC50 [26]: 1.76 µM; IC50 [30]: 0.32 µM
3 | N#Cc1ccc(Nc2nn([C@H]3COCC[C@@H]3C#N)cc2C(N)=O)cc1 | 47% | 1.77 | 2.4 mL/min/kg | 0.0012 µM | Dose-dependent effect | 5.6 h | 12 mL/min/kg | 18% | 0.23 µM | 0.21 | 100 mL/min/kg | 2.7 L/kg | 1 L/kg | 0.013 µM | 0.00015 µM | 51% | 6 mL/min/kg | 19 mL/min/kg | 3 mL/min/kg | 2.6 L/kg | solubility at 100 µM [31]: 130 µM (≈ 43.7 µg/mL); CL free [32]: 67 mL/min/kg; fraction unbound [33]: 0.18; CLint scaled [15]: 20 mL/min/kg; half-life [16]: 2.6 h; CLint scaled [17]: 6 mL/min/kg; IC50 [34]: 40 µM; fraction unbound [18]: 0.19; CL free [19]: 12 mL/min/kg; half-life [21]: 1.4 h; Ratio IC50 [22]: 8; IC50 [26]: 0.22 µM; IC50 [35]: 0.0012 µM; IC50 [30]: 0.089 µM
4 | CN(C)[C@H]1CC[C@H](n2cc(C(N)=O)c(Nc3ccc(Cl)cc3)n2)[C@@H](C#N)C1 | 16% | 2.15 | – | 0.013 µM | – | – | 21 mL/min/kg | – | 1.23 µM | – | – | 8 L/kg | – | 0.064 µM | 0.0015 µM | 42% | 109 mL/min/kg | 41 mL/min/kg | 26 mL/min/kg | 11 L/kg | IC50 [36]: 3 µM; IC50 [34]: 12.2 µM
